Laboratory results from paper PMC10017685 (Nature Communications, 2023).
In brackets after ≈: the same amount, converted by molar mass. Read-outs that look alike come from different tables or passages of the source. Peptide text beside a SMILES is read from it.

Key:
Sheep red blood cells = assay: Hemolysis assay (HC50); format: cell-based
Description: The hemolysis assay was conducted according to the procedure described previously. Sheep red blood cells (Defibrillated Sheep Blood, Graso, Poland) were used. […] Then the solution of RBCs was added to each well (100 μL with a 4% concentration of erythrocytes (v/v). The control wells for 0 and 100% hemolysis were also prepared: RBCs suspended in PBS and 1% of Triton-X 100, respectively. After that the plates were incubated for 60 min at 37 °C and then centrifuged at 800 × g for 10 min at 4 °C (Sorvall ST 16R Centrifuge, Thermo Scientific). The supernatant was carefully […] to new microtiter plates and the release of hemoglobin was measured at 590 nm (Multiskan™ GO Microplate Spectrophotometer, Thermo Scientific). Hemolysis for each concentration was calculated as the percentage of control with 100% hemolysis. All experiments were conducted in triplicate. The final values of HC50 were computed using ic50.tk tool.

E. coli ATCC 25922 [1] = format: cell-based, Escherichia coli
Description: Fresh cultures were used in antimicrobial assay. […] Moreover MBC was evaluated. […] All experiments were conducted in triplicate.

E. coli ATCC 43827 = format: cell-based, Escherichia coli
Description: Verification of antimicrobial activity of the synthesized analogs was conducted on reference strains of E. coli ATCC 25922 and ATCC 43827 in the first phase of the experimental validation, and S. aureus ATCC 33591, E. coli ATCC 25922, E. coli ATCC 43827, A. baumannii ATCC BAA 1605, P. aeruginosa ATCC 9027 in the second phase.
All the strains were stored at -80 °C in Roti®-Store cryo vials (Carl Roth GmbH, Germany) and before the tests were transferred into fresh Mueller-Hinton Medium (BioMaxima, Poland) and incubated for 24 h at 37 °C. Fresh cultures were used in antimicrobial assay. The MIC values were evaluated by the broth microdilution method according to Clinical and Laboratory Standards Institute Protocol[86]. […] The experiments were conducted on 96-well microtiter plates, with a final volume of 100 μL. Inoculums densities were adjusted spectrophotometrically (Multiskan™ GO Microplate Spectrophotometer, Thermo Scientific) at the wavelength of 600 nm. The MICs were taken as the lowest drug concentration at which a visible growth of microorganisms was inhibited[87]. Moreover MBC was evaluated. After MIC examination the samples from MIC well and two higher concentrations were seeded on the agar plates. Section with no visible growth of bacterial colonies was reported as the MBC for each strain and compound. All experiments were conducted in triplicate. […]

[2] = experimentally confirmed activity, strain not given; ref Supplementary Data 3; cited from earlier work
Description: 21 (1 picture or pasted object on this page, not shown here)

E. coli ATCC 25922 [3] = test system: E. coli ATCC 25922; design: method as in DBAASP; details: origin dbaasp_ecoli; ref DBAASP; cited from earlier work
S. aureus ATCC 29212 = details: ref https://dbaasp.org/peptide-card?id=8199; cited from earlier work
Description: page 7: Reviewer #2 (Remarks to the Author): The authors present a new method, HydrAMP, for antimicrobial peptide generation. The generative model of HydrAMP is a decoder, which produces a distribution over peptides in order to mimic the synthesis of the antimicrobial peptides in biological experiments. HydrAMP is the first model trained and used to identify active analogs of non-AMP prototypes. During training, they introduce an additional encoder to provide a variational approximation to help optimize the decoder. Their method is based on the conditional VAE model, which provides the foundat ...

E. coli ATCC 25922 [4] = details: ref https://dbaasp.org/peptide-card?id=8199; cited from earlier work
erythrocytes = details: cited from earlier work
Description: Supplement 41467_2023_36994_MOESM6_ESM.xlsx, sheet "MD calibration" | column: Hemolytic activity (HC50); Comment

human erythrocytes = test system: human erythrocytes; design: method as in DBAASP; details: toxicity class label 1 or 0, meaning of the labels not given; DBAASP HC50 data, human erythrocytes; ref DBAASP; cited from earlier work
[5] = Supplementary Data 5F, analogue generation without additional preselection
[6] = first experimental round, broth microdilution (CLSI), Mueller-Hinton Broth, 0.5 × 10^5 CFU/mL, 1-[…], 18 h at 37 °C, triplicate

Compound: CC[C@H](C)[C@H](NC(=O)CN)C(=O)NCC(=O)N[C@@H](CCCCN)C(=O)N[C@@H](Cc1ccccc1)C(=O)N[C@@H](CC(C)C)C(=O)N[C@@H](CCCCN)C(=O)N[C@@H](CCCCN)C(=O)N[C@@H](C)C(=O)N[C@@H](CCCCN)C(=O)N[C@@H](CCCCN)C(=O)N[C@@H](Cc1ccccc1)C(=O)NCC(=O)N[C@@H](CCCCN)C(=O)N[C@@H](C)C(=O)N[C@@H](Cc1ccccc1)C(=O)N[C@H](C(=O)N[C@@H](CCCCN)C(=O)N[C@H](C(=O)N[C@@H](CC(C)C)C(=O)N[C@@H](CCCCN)C(=O)N[C@@H](CCCCN)C(N)=O)[C@@H](C)CC)C(C)C [Pexiganan] (H-GIGKFLKKAKKFGKAFVKILKK-NH2)
- HC50 (Sheep red blood cells): > 512 µg/mL
- HC50 (Sheep red blood cells; red cells of sheep): >512 µg/mL

Compound: CC[C@H](C)[C@H](NC(=O)CNC(=O)[C@H](CO)NC(=O)[C@H](CC(C)C)NC(=O)[C@@H](NC(=O)[C@H](CCCNC(=N)N)NC(=O)CNC(=O)[C@@H](NC(=O)[C@H](CC(C)C)NC(=O)[C@@H]1CCCN1C(=O)[C@H](CC(C)C)NC(=O)[C@@H](N)Cc1ccccc1)[C@@H](C)CC)C(C)C)C(=O)N[C@@H](C)C(N)=O [Temp-P1-3] (H-FLPLIGRVLSGIA-NH2)
- E. coli ATCC 25922 MIC (E. coli ATCC 25922 [1]; [5]): 512 µg/mL
- MIC E. coli ATCC 25922 (E. coli ATCC 25922 [1]; [6]): 512 µg/mL (≈ 378 µM)
- E. coli ATCC 43827 MIC (E. coli ATCC 43827; [5]): 512 µg/mL
- MIC E. coli ATCC 43927 (E. coli ATCC 43827; [6]): 512 µg/mL (≈ 378 µM)

Compound: FLRFIGSVIHGIGHLVHHIGVAL [Clavaspirin]
- MIC (moderately active AMP of MD validation set) [2]: 64 µg/mL

Compound: CC[C@H](C)[C@H](N)C(=O)N[C@@H](CC(C)C)C(=O)N[C@@H](CCCNC(=N)N)C(=O)N[C@@H](Cc1c[nH]c2ccccc12)C(=O)N1CCC[C@H]1C(=O)N[C@@H](Cc1c[nH]c2ccccc12)C(=O)N[C@@H](Cc1c[nH]c2ccccc12)C(=O)N1CCC[C@H]1C(=O)N[C@@H](Cc1c[nH]c2ccccc12)C(=O)N[C@@H](CCCNC(=N)N)C(=O)N[C@@H](CCCNC(=N)N)C(=O)N[C@@H](CCCCN)C(N)=O [Omiganan] (H-ILRWPWWPWRRK-NH2)
- HC50 (Sheep red blood cells): > 512 µg/mL
- HC50 (Sheep red blood cells; red cells of sheep): >512 µg/mL

Compound: KDRPKKPGLCPLIWWLIIKVG
- Class (activity against E. coli ATCC 25922 in dedicated activity dataset) (E. coli ATCC 25922 [3]): 1 (positive (active) examples are peptides selected from DBAASP with experimentally verified MIC≤ 101.5≃ 32 against E. coli ATCC 25922)

Compound: FFSLIPSLVGGLISAFK [Stigmurin]
- MIC S. aureus ATCC 29212 (S. aureus ATCC 29212): 8.68 µM
- MIC E. coli ATCC 25922 (E. coli ATCC 25922 [4]): > 139 µM

Compound: CC[C@H](C)[C@H](NC(=O)[C@H](CCCCN)NC(=O)[C@H](CC(N)=O)NC(=O)[C@@H](NC(=O)[C@@H](NC(=O)[C@H](CCCCN)NC(=O)[C@@H](NC(=O)[C@H](C)NC(=O)[C@@H](NC(=O)[C@H](Cc1c[nH]cn1)NC(=O)CNC(=O)[C@H](C)NC(=O)[C@H](CC(C)C)NC(=O)[C@H](CC(=O)O)NC(=O)[C@H](CCCCN)NC(=O)[C@H](C)NC(=O)[C@H](C)NC(=O)CNC(=O)[C@H](CCCCN)NC(=O)[C@H](CC(C)C)NC(=O)[C@@H](NC(=O)[C@H](CC(=O)O)NC(=O)[C@H](CC(C)C)NC(=O)[C@@H](NC(=O)CN)C(C)C)[C@@H](C)CC)C(C)C)[C@@H](C)O)C(C)C)[C@@H](C)CC)C(N)=O [Syphaxin] (H-GVLDILKGAAKDLAGHVATKVINKI-NH2)
- HC50 (Sheep red blood cells): > 512 µg/mL
- HC50 (Sheep red blood cells; red cells of sheep): >512 µg/mL

Compound: FFHHIFRGIVHVGKTIHRLVTG [Piscidin 1]
- Comment: toxicity (erythrocytes): Active broad spetrum, toxic

Compound: GLLSLSLGKLL
- Class (activity against E. coli ATCC 25922 in dedicated activity dataset) (E. coli ATCC 25922 [3]): 1 (positive (active) examples are peptides selected from DBAASP with experimentally verified MIC≤ 101.5≃ 32 against E. coli ATCC 25922)

Compound: KWCFRVCARGICYRRCR
- Class (activity against E. coli ATCC 25922 in dedicated activity dataset) (E. coli ATCC 25922 [3]): 1 (positive (active) examples are peptides selected from DBAASP with experimentally verified MIC≤ 101.5≃ 32 against E. coli ATCC 25922)

Compound: CC[C@H](C)[C@H](N)C(=O)NCC(=O)N[C@@H](CCCCN)C(=O)N[C@@H](CCC(=O)O)C(=O)N[C@@H](Cc1ccccc1)C(=O)N[C@@H](CCCCN)C(=O)N[C@@H](CCCNC(=N)N)C(=O)N[C@H](C(=O)N[C@H](C(=O)N[C@@H](CCC(=O)O)C(=O)N[C@@H](CCCNC(=N)N)C(=O)N[C@H](C(=O)N[C@@H](CCCCN)C(=O)N[C@@H](CCCNC(=N)N)C(=O)N[C@@H](Cc1ccccc1)C(=O)N[C@@H](CC(C)C)C(=O)N[C@@H](CCCNC(=N)N)C(=O)N[C@@H](CCC(=O)O)C(=O)N[C@@H](CC(C)C)C(=O)N[C@H](C(=O)N[C@@H](CCCNC(=N)N)C(=O)N1CCC[C@H]1C(=O)N[C@@H](CC(C)C)C(=O)N[C@@H](CCCNC(=N)N)C(N)=O)C(C)C)[C@@H](C)CC)C(C)C)[C@@H](C)CC [OP-145] (H-IGKEFKRIVERIKRFLRELVRPLR-NH2)
- HC50 (Sheep red blood cells): > 512 µg/mL
- HC50 (Sheep red blood cells; red cells of sheep): >512 µg/mL

Compound: CC[C@H](C)[C@H](NC(=O)[C@H](Cc1ccccc1)NC(=O)[C@H](CCCCN)NC(=O)[C@H](CC(N)=O)NC(=O)[C@H](CC(C)C)NC(=O)[C@H](CCC(N)=O)NC(=O)CN)C(=O)N[C@@H](CCCCN)C(=O)N[C@@H](CCCCN)C(=O)N[C@@H](C)C(=O)N[C@@H](CCC(N)=O)C(=O)N[C@@H](CCCNC(=N)N)C(=O)N[C@@H](CCCCN)C(=O)N[C@@H](Cc1ccccc1)C(=O)N[C@@H](Cc1c[nH]cn1)C(=O)N[C@@H](CCC(=O)O)C(=O)N[C@@H](CCCCN)C(=O)N[C@@H](Cc1ccccc1)C(=O)N[C@@H](C)C(=O)N[C@@H](CCCCN)C(N)=O [GQ20] (H-GQLNKFIKKAQRKFHEKFAK-NH2)
- HC50 (Sheep red blood cells): > 512 µg/mL
- HC50 (Sheep red blood cells; red cells of sheep): >512 µg/mL

Compound: LKKLLKLLKPLLKL
- Class (activity against E. coli ATCC 25922 in dedicated activity dataset) (E. coli ATCC 25922 [3]): 1 (positive (active) examples are peptides selected from DBAASP with experimentally verified MIC≤ 101.5≃ 32 against E. coli ATCC 25922)

Compound: RFCVYAYVRVRGVLVRYRRCF [DBAASP_13515]
- Class (dedicated toxicity dataset used for toxicity classifier evaluation) (human erythrocytes): 0

Compound: LWKIWWKIWRVWKNWR [DBAASP_17523]
- Class (dedicated toxicity dataset used for toxicity classifier evaluation) (human erythrocytes): 1

Compound: FPVTWPTKWWKG [DBAASP_7115]
- Class (dedicated toxicity dataset used for toxicity classifier evaluation) (human erythrocytes): 0

Compound: GVFLDALKKFAKGGMNAVLNPK [DBAASP_3156]
- Class (dedicated toxicity dataset used for toxicity classifier evaluation) (human erythrocytes): 0

Compound: GWKSVFRKAKKVGKTVGGLALDHYL [DBAASP_995]
- Class (dedicated toxicity dataset used for toxicity classifier evaluation) (human erythrocytes): 0

Compound: GLLKWIKTLL [DBAASP_3140]
- Class (dedicated toxicity dataset used for toxicity classifier evaluation) (human erythrocytes): 1

Compound: GLLSRIKTLL [DBAASP_8598]
- Class (dedicated toxicity dataset used for toxicity classifier evaluation) (human erythrocytes): 0

Compound: ILGAILPLVSGLLSNKL [DBAASP_4393]
- Class (dedicated toxicity dataset used for toxicity classifier evaluation) (human erythrocytes): 0
